Experimental data published in patent US10058563B2, “System and method for diagnosis and treatment” (Pop Test Oncology Limited Liability Company, priority 2011, dated 2018).
Converted amounts (≈) assume the structure as drawn. Like-named read-outs stand apart in the source and are kept apart here.

Legend:
[1] = all phase I and phase II clinical trials performed with the compound; cited from earlier work
[2] = Behaviour in conventional dosage forms (capsule or tablet); assay type: in vivo; settings: like a capsule or a tablet
Excerpt: Another dosage form than a conventional tablet or capsule may be able to circumvent these issues.

[3] = system: TNBC (Triple Negative Breast Cancer; MDA-MB-231) cells; assay: Xenografted breast tumor growth, ORG 34517 plus Taxol (Example 1); assay type: in vivo, CB-17 SCID mice; settings: for relative tumor growth: N=3, control Veh/Veh 379%
Procedure: This study is performed to obtain evidence for enhancement of chemotherapy sensitivity of GR+/ER−/PR−/Her2-neu− breast cancer cells by blocking stress-mediated cell survival pathways with a GR antagonist. In the present pilot study, the GR antagonist ORG 34517, is investigated, in one dose, in combination with the chemotherapeutic agent Taxol. Both the Taxol and ORG 34517 doses are selected based on previous experiments.
Materials and Methods—1×107 TNBC (Triple Negative Breast Cancer; MDA-MB-231) cells in 50 ul of PBS (phosphate buffered saline) are injected into the mammary fat pad of 4-5 week old CB-17 SCID mice (Taconic Labs). The mice are allowed to form xenografted breast tumors of approximately 200 mm3 volume. When tumors reach an average of 200 mm3 (Week “0”), 15 mice are separated into the 3 treatment groups 1) vehicle, 2) paclitaxel (Taxol), 3) ORG 34517+ paclitaxel. The used paclitaxel dose is 10 mg/kg/day dissolved in Ethanol/Sesame Oil; ORG 34517 is administered in the maximum soluble dose of 20.5 mg/kg/day dissolved in Ethanol/Castor Oil. The mice receive intraperitoneal injections (200 ul) of drugs for 5 consecutive days (day 1-5). Tumors are measured three times per week. Tumor size is both expressed as absolute volume and as relative growth in comparison to baseline (day 0).
Results—Treatment of the animals is started when the tumor has a volume of at least 100 mm3. The total experimental group consisted of 15 animals. In 6 animals the tumor growth was considered not sufficient. […] In the control situation the tumor grows within 13 days with about 800 mm3 (see raw data). To correct for baseline differences, for each animal the relative tumor growth is calculated. Relative growth is defined as (tumor size day x−tumor size day 0)/tumor size day 0. Group averages for the relative tumor growth are depicted in FIG. 1. In the control condition (VehlVeh) the relative growth is 379%. […] A further reduction of the growth is induced by the addition of ORG 34517 (517/Taxo). The relative growth of this latter group is 100%.
A repeated measures ANOVA did reveal a significant time-effect (F5,36)=2.73; p=0.035), a significant treatment effect (F(2,36)=26.86; p=0.000) and a significant interaction (F(10,36)=2.36; p=0.029). […] This statistical analysis should be considered explorative because of the pilot nature of the study.

[4] = system: mineralocorticoid, progesterone, estrogen and androgen receptors; settings: such as those for estrogen and progesterone; cited from earlier work
glucocorticoid receptor = biological target: T1, glucocorticoid receptor (Homo sapiens, UniProt P04150); settings: disclosed in U.S. Pat. No. 6,011,025; cited from earlier work
T1 sequence (P04150 1-777): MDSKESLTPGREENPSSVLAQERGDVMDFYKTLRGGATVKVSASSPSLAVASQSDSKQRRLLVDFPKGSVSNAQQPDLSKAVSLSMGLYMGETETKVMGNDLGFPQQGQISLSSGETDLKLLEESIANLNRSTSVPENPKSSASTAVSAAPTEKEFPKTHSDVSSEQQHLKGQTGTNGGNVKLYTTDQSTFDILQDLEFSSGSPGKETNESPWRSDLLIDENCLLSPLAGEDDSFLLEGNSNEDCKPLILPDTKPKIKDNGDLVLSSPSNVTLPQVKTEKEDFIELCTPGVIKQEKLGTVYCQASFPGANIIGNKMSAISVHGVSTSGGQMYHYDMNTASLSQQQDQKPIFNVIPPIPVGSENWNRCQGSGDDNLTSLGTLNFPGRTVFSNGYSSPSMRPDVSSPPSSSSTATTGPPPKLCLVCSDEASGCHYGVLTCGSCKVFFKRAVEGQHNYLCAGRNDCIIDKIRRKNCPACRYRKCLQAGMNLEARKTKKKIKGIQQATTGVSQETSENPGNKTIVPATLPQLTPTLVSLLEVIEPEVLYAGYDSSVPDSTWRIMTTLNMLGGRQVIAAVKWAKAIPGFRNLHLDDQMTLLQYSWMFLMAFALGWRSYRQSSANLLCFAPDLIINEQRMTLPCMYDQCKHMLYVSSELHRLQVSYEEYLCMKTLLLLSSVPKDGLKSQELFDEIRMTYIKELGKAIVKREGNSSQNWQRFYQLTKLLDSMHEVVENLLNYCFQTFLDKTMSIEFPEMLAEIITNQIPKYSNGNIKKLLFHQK

[5] = Solubility in different solvents; assay type: physicochemical
Procedure: The solubility of (11β,17β)-11-(1,3-benzodioxol-5-yl)-17-hydroxy-17-(1-propynyl)estra-4,9-dien-3-one is determined in different solvents. These solutions can be of use for clinical treatment with the advantages as mentioned above.

[6] = system: ER-GR+ human breast cancer cells; assay: Tumor volume in mice implanted with ER-GR+ breast cancer cells (Example 2); assay type: in vivo; settings: i.p. vehicle alone vs Paclitaxel alone vs Paclitaxel and ORG 34517; 3 mice per group
Excerpt: (§1) As tumor volume in each mouse approached the test threshold of 200 mm3, the mice were randomized to receive intraperitoneal injections of vehicle alone, chemotherapy (Paclitaxel) alone, and chemotherapy and ORG 34517. Each group contained 3 mice.
as §1, with “Mice were implanted with cultured ER-GR+ human breast cancer cells. As” for “As”

[7] = disclosed in U.S. Pat. No. 6,011,025; cited from earlier work

## CC#C[C@]1(O)CC[C@H]2[C@@H]3CCC4=CC(=O)CCC4=C3[C@@H](c3ccc4c(c3)OCO4)C[C@@]21C [ORG 34517, (11β,17β)-11-(1,3-benzodioxol-5-yl)-17-hydroxy-17-(1-propynyl) estra-4,9-dien-3-one]
[1]
  significant toxicities and side effects: none were identified
[2]
  exposure behaviour: low exposure, high dose variability, large food effect and non-dose linearity
[3]; 517/Taxo, all three animals, individual scores
  tumor growth in comparison to Veh/Taxo treatment: decreased tumor growth
[3]; ORG 34517 20.5 mg/kg/day + Taxol 10 mg/kg/day i.p. day 1-5 (517/Taxo)
  relative tumor growth: 100%
[3]; ORG 34517 20.5 mg/kg/day + Taxol 10 mg/kg/day i.p. for 5 days
  animals with tumor shrinkage during treatment: 2 out of 3
[3]; ORG 34517 i.p. 20.5 mg/kg/day for 5 days
  effect on the chemotherapeutic effect of Taxol: potentiated the chemotherapeutic effect of Taxol
[4]
  cross-binding to other related steroidal hormone receptors: without significant cross-binding
Glucocorticoid receptor
  glucocorticoid receptor binding affinity: high
[5]; Arachis oil
  solubility: 2.46 mg/g
[5]; Benzylalcohol
  solubility: 390 mg/g
[5]; Castor oil
  solubility: 7.38 mg/g
[5]; Castor oil:benzylbenzoate (90:10)
  solubility: 15.0 mg/g
[5]; Castor oil:propylene glycol laurate (0.55:0.45; v:v)
  solubility: 9.4 mg/g
[5]; Corn oil
  solubility: 2.58 mg/g
[5]; Cremophor EL
  solubility: 23 mg/g
[5]; Gelicure 44/14, oil or lipid, read-out: Solubility
  solubility: 100 mg/mL (≈ 232000 µM)
[5]; Glucofurol:water (50:50), aqueous with cosolvent or surfactant or cyclodextrin, read-out: Solubility
  solubility: 0.7 mg/mL (≈ 1630 µM)
[5]; Glycoferol, organic solvent or mixture, read-out: Solubility
  solubility: 118 mg/mL (≈ 274000 µM)
[5]; HPβCD, 10% in water, aqueous with cosolvent or surfactant or cyclodextrin, read-out: Solubility
  solubility: 0.207 mg/mL (≈ 481 µM)
[5]; HPβCD, 20% in water, aqueous with cosolvent or surfactant or cyclodextrin, read-out: Solubility
  solubility: 0.395 mg/mL (≈ 917 µM)
[5]; HPβCD, 40% in water, aqueous with cosolvent or surfactant or cyclodextrin, read-out: Solubility
  solubility: 0.8 mg/mL (≈ 1860 µM)
[5]; Medium Chain monoglyceride/glycerol monocaprylate
  solubility: 28 mg/g
[5]; Miglyol 812
  solubility: 4.5 mg/g
[5]; Mulgofen:water (5:95), aqueous with cosolvent or surfactant or cyclodextrin, read-out: Solubility
  solubility: 2 mg/mL (≈ 4650 µM)
[5]; Olive oil
  solubility: 2.26 mg/g
[5]; PEG 400, organic solvent or mixture, read-out: Solubility
  solubility: 34.4 mg/mL (≈ 79900 µM)
[5]; PEG 400:water (60:40), aqueous with cosolvent or surfactant or cyclodextrin, read-out: Solubility
  solubility: 0.0006 mg/mL (≈ 1.39 µM)
[5]; PEG 1500, organic solvent or mixture, read-out: Solubility
  solubility: 37 mg/mL (≈ 85900 µM)
[5]; Polysorbate in water (0.5%)
  solubility: <LOD
[5]; Soy oil
  solubility: 2.70 mg/g
[5]; Span 80
  solubility: 7 mg/g
[5]; TPGS:PEG 400:propyleneglycol (12:17:55), organic solvent or mixture, read-out: Solubility
  solubility: 0.7 mg/mL (≈ 1630 µM)
[5]; TPGS:PEG 400:propyleneglycol (20:60:5), organic solvent or mixture, read-out: Solubility
  solubility: 0.9 mg/mL (≈ 2090 µM)
[5]; acetone, organic solvent or mixture, read-out: Solubility
  solubility: > 10 mg/mL
[5]; acetonitrile, organic solvent or mixture, read-out: Solubility
  solubility: > 10 mg/mL
[5]; aqueous with cosolvent or surfactant or cyclodextrin, TPGS:d-Alpha Tocopheryl Polyethylene Glycol 1000 Succinate (20%, as delivered), read-out: Solubility
  solubility: 1.1 mg/mL (≈ 2550 µM)
[5]; dimethylsulfoxide, organic solvent or mixture, read-out: Solubility
  solubility: > 100 mg/mL
[5]; dog bile:phosphate buffer (1:1), plasma or biological fluid, Dog bile:phosphate buffer (pH = 6.5) (1:1), read-out: Solubility
  solubility: ~0.08 mg/mL (≈ 186 µM)
[5]; ethanol, organic solvent or mixture, read-out: Solubility
  solubility: > 10 mg/mL
[5]; ethanol:PEG 400:propylene glycol (10:50:40), organic solvent or mixture, read-out: Solubility
  solubility: 28.6 mg/mL (≈ 66400 µM)
[5]; ethanol:PEG 400:propylene glycol:water (10:40:40:10), aqueous with cosolvent or surfactant or cyclodextrin, read-out: Solubility
  solubility: 14 mg/mL (≈ 32500 µM)
[5]; methanol, organic solvent or mixture, read-out: Solubility
  solubility: > 10 mg/mL
[5]; propylene glycol, organic solvent or mixture, read-out: Solubility
  solubility: 8.9 mg/mL (≈ 20700 µM)
[5]; water with sodium lauryl sulphate 0.5% w/v, aqueous with cosolvent or surfactant or cyclodextrin, Water-Sodium lauryl sulphate (0.5% w/v), read-out: Solubility
  solubility: 0.24 mg/mL (≈ 557 µM)
[5]; water with sodium lauryl sulphate 1.0% w/v, aqueous with cosolvent or surfactant or cyclodextrin, Water-Sodium lauryl sulphate (1.0% w/v), read-out: Solubility
  solubility: 0.377 mg/mL (≈ 876 µM)
[5]; water, read-out: Solubility
  solubility: 0.003 mg/mL (≈ 6.97 µM)
[6]
  attained tumor volume: significant differences in attained tumor volume
[7]
  androgenic and progestagenic activities: low

## CC(=O)O[C@H]1C(=O)[C@@]2(C)[C@H]([C@H](OC(=O)c3ccccc3)[C@]3(O)C[C@H](OC(=O)[C@H](O)[C@@H](NC(=O)c4ccccc4)c4ccccc4)C(C)=C1C3(C)C)[C@]1(OC(C)=O)CO[C@@H]1C[C@@H]2O [Taxol, paclitaxel, reference compound]
[3]; Taxol 10 mg/kg/day i.p. day 1-5 (Veh/Taxo)
  relative tumor growth: 183%
[3]; Taxol injections alone
  effect on tumor growth: reduced the tumor growth
